These results are taken from US12421269B2, “SGLT2/DPP4 inhibitor and application thereof” (CGeneTech (Suzhou, China) CO., Ltd., priority 2019, dated 2025).

Marks after values point to notes of the source that are not given here.

For one assay, the system named is SD Rat. Briefly: Oral glucose tolerance (OGTT) in rats. Type of assay: in vivo. Conditions: male SD rats, single gavage dose, Canagliflozin 3 mg/kg, test compound 10 mg/kg. The procedure:
The animals will be acclimatized in the animal room for 1 week after arrival at the facility.
The animals are fasted for 16 hours in the metabolic cage and given the drug or solvent (5 mL/kg) according to the table above, followed immediately by 50% glucose solution (2 g/kg, 4 mL/kg).
After 1 hour of glucose administration, the animals resumed feeding, and blood samples were collected at 0 min, 20 min, 40 min, 60 min, 90 min and 120 min for blood glucose measurement; urine at 0 to 24 hours was used for urinary glucose (mg/200 g) and urine volume test, respectively.
All values were expressed as mean values. Statistical analysis was performed using Graphpad Prism 6 single factor analysis of variance Tukey's multiple comparison test. The p-value less than 0.05 was considered statistically significant.

A further assay addresses T1, Human-SGLT1 (Homo sapiens, UniProt P13866).
T1 sequence (P13866 1-664): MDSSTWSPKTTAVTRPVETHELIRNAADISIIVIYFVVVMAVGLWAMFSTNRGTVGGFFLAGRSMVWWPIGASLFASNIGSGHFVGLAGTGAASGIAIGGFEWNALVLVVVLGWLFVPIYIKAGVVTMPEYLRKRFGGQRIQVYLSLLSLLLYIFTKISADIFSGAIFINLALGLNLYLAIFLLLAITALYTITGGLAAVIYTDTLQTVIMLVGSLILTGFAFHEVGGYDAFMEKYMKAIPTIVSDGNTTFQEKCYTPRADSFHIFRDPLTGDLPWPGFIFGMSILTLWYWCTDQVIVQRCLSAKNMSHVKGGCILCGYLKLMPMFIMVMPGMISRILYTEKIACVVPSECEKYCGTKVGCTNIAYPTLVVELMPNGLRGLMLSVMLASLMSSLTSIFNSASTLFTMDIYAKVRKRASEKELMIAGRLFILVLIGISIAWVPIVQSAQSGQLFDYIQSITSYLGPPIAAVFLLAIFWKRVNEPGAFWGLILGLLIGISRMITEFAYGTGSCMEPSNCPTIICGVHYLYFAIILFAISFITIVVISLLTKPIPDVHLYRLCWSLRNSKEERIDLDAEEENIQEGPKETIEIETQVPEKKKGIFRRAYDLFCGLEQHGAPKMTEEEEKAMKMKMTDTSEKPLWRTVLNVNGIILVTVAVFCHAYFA
Briefly: SGLT1 glucose transport assay ([14C]-labeled glucose uptake). Conditions: cells stably expressing Human-SGLT1, 37° C., 2 hours. Type of assay: cell-based. The procedure:
To test the effect of compounds on the glucose transport activity of SGLT1 transporters by measuring the amount of [^14C]-labeled glucose entering highly expressed Human-SGLT1 cells.
The cells stably expressing Human-SGLT1 used for the experiments were constructed by WuXi AppTec Shanghai. The SGLT1 cells were plated in Cytostar-T (PerkinElmer) 96-well cell culture plates and cultured overnight at 5% CO2, 37° C.
(§1) Experimental buffer: 10 mM 4-hydroxyethylpiperazine ethanesulfonic acid (HEPES), 1.2 mM magnesium chloride (MgCl2), 4.7 mM potassium chloride (KCl), 2.2 mM calcium chloride (CaCl2) and 120 mM sodium chloride (NaCl).
The compounds were diluted with 100% dimethyl sulfoxide (DMSO) at a starting concentration of 1 mM, 8 points of 5-fold serial gradient dilution was made.
3 μM [^14C]-labeled methyl α-D-glucopyranoside (Methyl a-D-glucopyranosid) was prepared with experimental buffer.
Cells were treated with 49 μL of experimental buffer, 1 μL of gradient-diluted compound and 50 μL of 3 μM [^14C]-isotope-labeled glucose solution at 37° C. for 2 hours.
Readings were taken with an isotope detector (Micro beta Reader).
The data were calculated by GraphPad Prism 5.0 software using the formula: log(inhibitor) vs. response—Variable slope to obtain the IC50 values of the tested compounds, and the experimental results are shown in Table 5.

A further assay addresses T2, Human-SGLT2 (Homo sapiens, UniProt P31639).
T2 sequence (P31639 1-672): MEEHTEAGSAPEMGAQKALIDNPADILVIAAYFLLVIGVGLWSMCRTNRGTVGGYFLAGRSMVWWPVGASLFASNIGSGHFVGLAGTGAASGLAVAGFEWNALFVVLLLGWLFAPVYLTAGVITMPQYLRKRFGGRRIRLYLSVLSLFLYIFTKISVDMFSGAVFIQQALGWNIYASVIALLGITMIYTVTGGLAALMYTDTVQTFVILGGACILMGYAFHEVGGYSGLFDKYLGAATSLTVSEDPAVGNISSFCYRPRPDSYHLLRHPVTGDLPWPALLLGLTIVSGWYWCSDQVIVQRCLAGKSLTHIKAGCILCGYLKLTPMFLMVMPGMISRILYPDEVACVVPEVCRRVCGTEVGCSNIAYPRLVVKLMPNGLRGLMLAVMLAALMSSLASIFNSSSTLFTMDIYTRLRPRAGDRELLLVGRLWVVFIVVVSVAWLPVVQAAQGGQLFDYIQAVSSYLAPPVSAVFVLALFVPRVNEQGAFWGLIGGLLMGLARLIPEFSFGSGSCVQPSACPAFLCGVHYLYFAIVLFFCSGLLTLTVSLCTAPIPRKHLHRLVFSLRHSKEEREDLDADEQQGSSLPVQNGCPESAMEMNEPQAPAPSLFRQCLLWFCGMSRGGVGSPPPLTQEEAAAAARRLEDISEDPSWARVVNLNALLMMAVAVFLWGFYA
Kind of assay: SGLT2 glucose transport assay ([14C]-labeled glucose uptake). Conditions: cells stably expressing Human-SGLT2, 37° C., 2 hours. It counts as cell-based. The procedure:
To test the effect of compounds on the glucose transport activity of SGLT2 transporters by measuring the amount of [^14C]-labeled glucose entering highly expressed Human-SGLT2 cells.
The cells stably expressing Human-SGLT2 used for the experiments were constructed by WuXi AppTec Shanghai. SGLT2 cells were plated in 96-well cell culture plates (Greiner) and cultured overnight at 5% CO2, 37° C.
as §1
Termination buffer: 10 mM 4-hydroxyethylpiperazine ethanesulfonic acid (HEPES), 1.2 mM magnesium chloride (MgCl2), 4.7 mM potassium chloride (KCl), 2.2 mM calcium chloride (CaCl2), 120 mM sodium chloride (NaCl) and 1 μM LX4211.
The compounds were diluted with 100% dimethyl sulfoxide (DMSO) at a starting concentration of 10 μM, 8 points of 5-fold serial gradient dilution was made.
6 μM [^14C]-labeled methyl α-D-glucopyranoside was prepared with experimental buffer.
Cells were treated with 49 μL of experimental buffer, 1 μL of gradient-diluted compound, and 50 μL of 6 μM [^14C]-isotope-labeled glucose solution at 37° C. for 2 hours.
The liquid in the wells was aspirated and the cells were washed 3 times with termination buffer.
The cells were lysed with 50 μL of 10% sodium hydroxide solution, and the cell lysate was aspirated into a scintillation tube, and 2 mL of scintillation solution was added.
Readings were taken with an isotope detector (Tricarb).
The data were calculated by GraphPad Prism 5.0 software using the formula: log (inhibitor) vs. response—Variable slope to obtain the IC50 values of the tested compounds, and the experimental results are shown in Table 5.

Assay [1] concerns the target recombinant human dipeptidyl peptidase 4 (rhDPP4) (Homo sapiens, UniProt P27487). Briefly: rhDPP4 inhibitor screening experiment. It counts as biochemical. Conditions: Gly-Pro-aminofluorescein substrate, 1 hour at room temperature. The source says: To evaluate the inhibitory activity of compounds against recombinant human dipeptidyl peptidase 4 (rhDPP4) by measuring the half-inhibitory concentration (IC50) values of the compounds. In the experiment, rhDPP4 was used to catalyze the generation of […] from substrate, the substrate was a luminescent precursor […], and the substrate and luciferase were reacted to generate a light signal, the intensity of the light signal was proportional to the enzyme activity.
• 1) The gradient diluted compounds (4-fold fold-dilution, 10 assay concentrations) were transferred 250 nL into a 384-well plate (PerkingElmer-6007299) using a non-contact nano-acoustic pipetting system (ECHO), and dimethyl sulfoxide (DMSO) concentration was 0.5% in the final reaction system. Blank control wells (containing DMSO, substrate and 10 mM Tris-HCl) and positive control wells (containing DMSO, substrate and rhDPP4) were set up. • 2) The pre-dispensed frozen buffer containing luciferase was removed and restored to room temperature, and then the substrate was added to configure a working solution with a substrate concentration of 20 μM. RhDPP4 was prepared as a working solution of 0.2 ng/mL using 10 mM Tris-HCl (pH 8.0) aqueous solution. • 3) 25 μL of working solution containing 20 μM substrate and 25 μL of working solution containing 0.2 ng/mL rhDPP4 were added to a 384-well plate with the addition of the compound, then the mixture was centrifuged for 30 s at 1000 rpm, the plate was sealed with aluminum foil sealing film and incubated for 1 hour at room temperature. • 4) The intensity of the light signal was detected by EnVision, a multifunctional microplate reader. The raw data were used to calculate the inhibition of rhDPP4 activity by the compound. % of inhibition activity=100−(compound well signal value−blank control well signal value)/(positive control well signal value−blank control well signal value)*100. • The percent of inhibition was imported into GraphPad Prism software for data processing to derive the corresponding dose-effect curves and to derive the IC50 values of the tested compounds.

Chain of recombinant human dipeptidyl peptidase 4 (rhDPP4) (P27487 whole entry): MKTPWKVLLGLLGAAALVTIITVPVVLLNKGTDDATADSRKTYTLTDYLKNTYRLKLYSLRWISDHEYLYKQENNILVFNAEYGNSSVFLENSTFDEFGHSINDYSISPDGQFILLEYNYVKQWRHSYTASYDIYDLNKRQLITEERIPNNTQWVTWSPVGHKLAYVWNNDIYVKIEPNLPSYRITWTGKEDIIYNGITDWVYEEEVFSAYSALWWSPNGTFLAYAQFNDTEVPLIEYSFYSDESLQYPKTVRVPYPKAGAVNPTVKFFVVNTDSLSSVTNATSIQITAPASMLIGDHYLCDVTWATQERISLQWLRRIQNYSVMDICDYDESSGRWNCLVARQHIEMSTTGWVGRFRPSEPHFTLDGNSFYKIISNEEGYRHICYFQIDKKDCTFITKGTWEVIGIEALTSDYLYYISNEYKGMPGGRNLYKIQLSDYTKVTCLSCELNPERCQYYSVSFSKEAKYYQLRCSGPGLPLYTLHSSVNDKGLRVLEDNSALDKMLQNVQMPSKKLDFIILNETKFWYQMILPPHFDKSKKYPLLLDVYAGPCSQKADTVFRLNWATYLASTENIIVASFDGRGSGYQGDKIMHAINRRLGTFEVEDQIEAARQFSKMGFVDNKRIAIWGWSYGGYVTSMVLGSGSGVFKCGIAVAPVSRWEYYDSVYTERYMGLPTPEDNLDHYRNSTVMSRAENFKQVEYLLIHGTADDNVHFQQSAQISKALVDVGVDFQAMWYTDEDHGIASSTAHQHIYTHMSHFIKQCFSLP

In turn, `Cc1ccc([C@@H]2O[C@H](CO)[C@@H](O)[C@H](O)[C@H]2O)cc1Cc1ccc(-c2ccc(F)cc2)s1` [Canagliflozin, reference compound] displayed an OGTT blood glucose levels AUC0-2hr in the assay on SD Rat (glucose 2 g/kg) of 945 mmol/L/min. For the same molecule, in the assay on SD Rat (urine 0 to 24 hours), the Urinary glucose level is 1317**** mg/200 gBW and the Urine volume is given as 24.4*** mL/200 gBW.

As for `CS[C@H]1O[C@@H](c2cc(Cc3ccc(O[C@@H]4CCN([C@H]5CO[C@H](c6cc(F)ccc6F)[C@@H](N)C5)C4)cc3)c(Cl)cc2C)[C@H](O)[C@@H](O)[C@@H]1O` [WX002], the results for the IC50 (against Human-SGLT1; against Human-SGLT2; in assay [1]) were 187 nM, 4.84 nM and 104 nM, respectively.

Turning to `CS[C@H]1O[C@@H](c2ccc(Cl)c(Cc3ccc(O[C@@H]4CCN([C@H]5CO[C@H](c6cc(F)ccc6F)[C@@H](N)C5)C4)cc3)c2C)[C@H](O)[C@@H](O)[C@@H]1O` [WX003], the IC50 against Human-SGLT1 was found to be 980 nM; against Human-SGLT2, 332 nM; in assay [1] it was 112 nM.

Take `CS[C@H]1O[C@@H](c2cc(C)c(Cl)c(Cc3ccc(OC4CCN([C@H]5CO[C@H](c6cc(F)ccc6F)[C@@H](N)C5)C4)cc3)c2)[C@H](O)[C@@H](O)[C@@H]1O` (some centres unmarked) [WX004]: the IC50 worked out at 33.3 nM on Human-SGLT1, 5.96 nM against Human-SGLT2 and 166 nM in assay [1].

As to `CS[C@H]1O[C@@H](c2cccc(Cc3ccc(OC4CCN([C@H]5CO[C@H](c6cc(F)ccc6F)[C@@H](N)C5)C4)cc3)c2)[C@H](O)[C@@H](O)[C@@H]1O` (some centres unmarked) [WX005], the IC50 turned out to be 28.5 nM against Human-SGLT1, 5.05 nM at Human-SGLT2 and 116 nM in assay [1].

On to `COc1cc(F)c(Cc2ccc(O[C@@H]3CCN([C@H]4CO[C@H](c5cc(F)ccc5F)[C@@H](N)C4)C3)cc2)cc1[C@@H]1O[C@H](SC)[C@@H](O)[C@H](O)[C@H]1O` [WX007], for which the IC50 on Human-SGLT1 worked out at 2070 nM; at Human-SGLT2, 19.7 nM; in assay [1], 32.5 nM.

For the molecule `CS[C@H]1O[C@@H](c2cc(Cc3ccc(O[C@@H]4CCN([C@H]5CO[C@H](c6cc(F)ccc6F)[C@@H](N)C5)C4)cc3)c(F)cc2C)[C@H](O)[C@@H](O)[C@@H]1O` [WX008], the figures for the IC50 against Human-SGLT1 and at Human-SGLT2 were 521 nM and 7.39 nM, respectively.

For orientation: IC50 means the concentration that inhibits the measured activity by half.
